# According to US8324282B2, “Alkylating agent combinations in the treatment of cancer” (Case Western Reserve University, priority 1999, dated 2012):
# Tests used:
# [1] = Toxicity evaluation in mice bearing HCT116 xenograft; conditions: Table 2 doses
# Procedure: (§5) Tumors in Nude Mice. Tumor cells (5×10^6) were injected into flanks of female athymic HSD nude mice, at 6-8 weeks of age. The tumors were measured with calipers using the National Cancer Institute formula: V=L(mm)×I^2 (mm)/2 where L is the largest diameter and I is the smallest diameter of the tumor. […] Toxicity Evaluation. Toxicity after treatment was evaluated by body weight measurements and peripheral WBC counting. Body weight was measured three times weekly from the first treatment until 2 weeks after the end of treatment. The weight loss was expressed as a percentage of the initial weight (initial weight−lowest weight/initial weight×100%).
# SW480 cells [2] = test: Colony survival assay, SW480; type: cell-based, human
# From the text: (§1) Chemicals and Reagents. BG was generously provided by Dr. Robert Moschel (Frederick Cancer Research and Development Center, National Cancer Institute). Stock solution was made in dimethylsulfoxide. TMZ and BCNU were obtained from the Drug Synthesis and Chemistry Branch, Drug Therapeutic Program, National Cancer Center Institute. PD128763 was a gift from Park-Davis Pharmaceutical Division. 6-AN, 3-AB, MX and methylmethane sulfonate (MMS) were purchased from Sigma (ST. Louis, Mo.). Stock solutions of PD128763, 3-AB and 6-AN were prepared by dissolving in dimethylsulfoxide and added to cell culture at a final concentration of <1% DMSO, when cells were treated with these compounds. MX was dissolved in sterilized water (pH 7.0). All stock solutions were kept at −20° C. BCNU was prepared fresh in 0.5 ml of 100% ethanol, diluted in PBS, and used with in 10 min. Colony Survival Assay. SW480 cells were obtained from the ATCC. HCT116 cells were obtained from R. Boland, University of Michigan Medical Center. All cell lines were cultured in appropriate growth medium.
# (§2) Cells (2000/dish) were plated, adhered for 18 hrs and treated with TMZ or
# (§3) MMS plus or minus modifiers such as […], MX, 6-AN, 3-AB or PD128763, according to experimental protocol. After treatment, cells were washed and fresh medium was replaced. The cells were grown for a further 7 days prior to staining with methylene blue for determination of colonies containing more than 50 cells. Comparisons of drug induced cytotoxicity consisted of a calculation of the dose modification factor (DMF), defined as the ratio of the IC50 of either TMZ or MMS in the absence to that in the presence of indicted modifier(s), i.e., DMF═IC50 for TMZ alone/IC50 for TMZ plus modifier(s).
# [3] = test system: human bone marrow cells (CD34+ cells); test: Colony forming assay, human bone marrow / CD34+ cells; type: cell-based; conditions: human CD34+ cells; colony forming assay
# From the text: (§4) We observed less myelosuppression and less weight loss using TMZ and MX than using TMZ and BG. […] To test this hypothesis, we conducted in vitro experiments comparing the sensitivity to BG+TMZ and MX+TMZ in colon cancer cell lines with that of mouse bone marrow and human bone marrow cells. […] MX increased TMZ killing by 4 fold in SW480 cells. […] Topoisomerase (Topo) I and Topo II recognize spontaneous AP sites and form stable cleavable complexes. We hypothesized that AP sites formed during repair of TMZ-induced N7 mG and N3 mA adducts would also be recognized by Topo I and Topo II. However since Base Excision Repair [BER] is normally quite efficient, we further hypothesized that the impact of Topo I and Topo II would be most important after MX inhibition of BER; increased unrepaired MX adducted AP sites should increase Topo mediated strand breaks and apoptosis. Therefore, potentiation of TMZ cytotoxicity by MX would be dependent on Topo I and II. […] Lack of Topo I and II results in less cleavable complex formation, fewer double strand DNA breaks, and less apoptosis. We predict a better therapeutic index for the combination of MX/TMZ than observed with BG/TMZ because of the relative overexpression of topoisomerases I and II in malignant cells compared to marrow progenitors.
# HCT116 cells [4] = test: Flow cytometry cell cycle distribution and apoptosis, HCT116; type: cell-based, human
# SW480 xenograft = SW480 xenograft tumor response in nude mice; type: in vivo; conditions: SW480 xenograft; Table 1 doses: TMZ 120, MX 2, BG+TMZ 30/120, MX+TMZ 2/120 mg/kg; daily for 5 days
# AP sites in SW480 cells = test: AP sites measured with ARP reagent and S phase in SW480 cells, prolonged MX exposure; conditions: MX and TMZ over 72 h
# From the text: Cell lines used in this study include SW480 (MMR wt, p53 mut), HCT116 (hMLH1 mut, p53 wt) and HCT15 (hMSH6 mut, p53 mut). We measured AP sites using ARP reagent, noting that ARP and MX compete for binding to AP sites. […] It is likely that cytotoxicity elicited by both topol/II inhibitors and MX-AP sites is due to DNA cleavable complexes, and is thus dependent on the level of topo I/II expression.
# DEtp cell line = test: DEtp subline of DLD1; type: cell-based; conditions: DEtp cell line
# From the text: We also investigated whether TMZ and MX-induced MX-AP sites may also act as poisons of topoisomerase II α (topo II), producing dual lethal targets. To analyze the effect of MX-AP site on topo II-mediated DNA cleavage, a position-specific MX-AP site was generated on topo II cleavage sites using oligonuleotides for cleavage assay. […] We also found prolonged induction of topo II and remarkable increase in DNA double strand breaks in cells treated with TMZ and MX compared to TMZ alone. Similar results were also observed in cells treated with etoposide but not with N-methyl-maleimide (a catalytic inhibitor of topo II and also an antagonizer of etoposide). Moreover, the potentiation of TMZ by MX was decreased in DEtp cell line that was a subline derived from DLD1 and 5-fold more resistant to etoposide compared to the parental cell line.
# [5] = Acute toxicity of MX (i.p.); conditions: mice, single injection
# Procedure: Three mice per group were injected (i.p.) with MX at doses of 1, 2, 4, 6, 10 and 15 mg/kg for the test of acute toxicity.
# HCT116 cells [6] = test: Colony survival assay, HCT116; type: cell-based, human; conditions: HCT116
# From the text: as §1, §2, §3
# SW480 cells [7] = test: Flow cytometry cell cycle distribution and apoptosis, SW480
# Procedure: Median Effect Analysis (MEA). MEA was used to determine the dose-response interactions between TMZ and either MX or PD 128763. Drugs were combined at the ratio of the IC50 values for either TMZ and MX or TMZ and PD 128763 as determined by survival/concentration curves. The combination was compared to the cytotoxicity of each drug alone in every experiment. The combination index (CI) was determined from colony-forming assays at increasing levels of cell killing, using analysis of multiple drug interaction program (Biosoft, Cambridge, United Kingdom) developed based on method of Chou and Talalay (Chou and Talalay “Quantitative analysis of dose-effect relationship: the combined effects of multiple drugs on enzyme inhibitors” In: G. Weber (ed.) Advances in Enzyme Regulation, pp. 27-55, New York: Pergamon Press, 1983). CI values of less than or grater than 1 indicate synergy and antagonism, respectively, whereas a CI value of 1 indicates additivity of the drugs. Flow Cytometry for Cell Cycle Distribution Analysis. For cell cycle analysis, 10^6 cells were plated in 100-mm tissue culture dishes and exposed to MX (6 mM)/PD128763 (100 μM) or MX (6 mM)/PD128763 (100 μM) plus TMZ (300 μM) at 37° C. After 24 h-72 h of culture, cells were fixed in 80% ethanol and DNA was stained with 20 μg/ml propidium iodide. DNA fluorescence of PI-stained cells was measured with an Elite ESP flow cytometer/cell sorter (Coulter, Miami, Fla.). Cell cycle distribution was analyzed with Modfit 5.2 program (Verity software, Topsham, Mass.) at least 10,000 cells per data point. Western Blotting for PARP Cleavage Detection. Cell extracts were resolved by SDS-PAGE (12% polyacrylamide) in a Bio-Rad minigel apparatus at 150 V for 1 hr. […] The tumors were measured with calipers using the National Cancer Institute formula: V=L(mm)×I^2 (mm)/2 where L is the largest diameter and I is the smallest diameter of the tumor. […] The relative tumor volume (V/V0) was calculated by dividing the measured tumor volume (V) by the initial tumor volume (V0) at day 0. Tumor responses were quantified by tumor regrowth delay. Tumor growth delays were calculated according to: tumor growth delay=T2XC2X, where T2X and C2X represent the number of days treated and control tumors take to double in size from the day of treatment, respectively. […] Toxicity after treatment was evaluated by body weight measurements and peripheral WBC counting. Body weight was measured three times weekly from the first treatment until 2 weeks after the end of treatment. The weight loss was expressed as a percentage of the initial weight (initial weight−lowest weight/initial weight×100%). Peripheral WBCs were monitored 5 days after the end of treatment compared with WBCs of control mice.
# [8] = test system: murine bone marrow progenitor cells; test: Colony forming assay, murine bone marrow progenitor cells; type: cell-based, mouse; conditions: murine bone marrow progenitor cells; colony forming assay
# From the text: as §4
# [9] = Toxicity evaluation in mice bearing SW480 xenograft; conditions: Table 1 doses
# Procedure: as §5
smiles,measurement,setting,value
"CON [MX, methoxyamine]",Toxicity (max. BW loss),[1],8.3%
same,cytotoxicity of MX alone,"SW480 cells [2]; SW480, 6 mM MX",nontoxic
same,DMF / potentiation of MMS cytotoxicity,"SW480 cells [2]; SW480, MMS 0-3 mM plus 6 mM MX and/or BG vs MMS alone",2.0 fold
same,DMF (IC50 for TMZ alone/IC50 for TMZ plus modifier(s)),"SW480 cells [2]; SW480, modifier(s) plus TMZ vs TMZ alone",2.4 fold
same,effect of modifier on BCNU cytotoxicity,"SW480 cells [2]; SW480, without BG",No enhancement
same,potentiation of TMZ cytotoxicity,"SW480 cells [2]; SW480 tumor cells, Example 13",4 fold
same,potentiation of TMZ cytotoxicity,[3],no potentiation
same,effect on cell cycle distribution,HCT116 cells [4],did not affect
same,Tumor growth delays,SW480 xenograft,2.0 ± 0.5 days
same,AP sites MX bound,AP sites in SW480 cells,80%
same,potentiation of TMZ by MX,DEtp cell line,decreased
same,lethal dose,[5],15 mg/kg
same,cytotoxicity of MX alone,HCT116 cells [6]; 6 mM MX,nontoxic
same,DMF of MMS,HCT116 cells [6]; MMS 0-3 mM plus 6 mM MX 1 hr vs MMS alone,2.3
same,DMF (IC50 for TMZ alone/IC50 for TMZ plus modifier),HCT116 cells [6]; modifier plus TMZ vs TMZ alone,3.1 fold
same,effect of modifier on BCNU cytotoxicity,HCT116 cells [6]; without BG,No enhancement
same,effect of modifier alone on cell cycle distribution,SW480 cells [7],did not affect
same,potentiation of TMZ cytotoxicity,[8],no potentiation
same,Toxicity (max. BW loss),[9],0%
